# Experimental data as given in the supplement of paper PMC10307832.
# Columns and labels:
# Experiment in all cases: relative viability (nuclei count vs DMSO), 5 days (fraction); higher = more cells survive
# LCLC-103H = tested on: LCLC-103H
# How it was run: (§1)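 Relative viability was taken as the ratio of nuclei in treated wells to nuclei in vehicle wells. Lung cancer cell lines in 1536-well plates received compounds by pin tool one day after seeding, either one drug alone or a fixed anchor-drug dose plus five library-drug doses (not always all listed) in √10 steps. Nuclei were counted on 4× images after 5 days of treatment, and values are medians of duplicate plates.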
# NCI-H3122 = tested on: NCI-H3122
# How it was run: as §1
# NCI-H650 = tested on: NCI-H650
# How it was run: as §1
# NCI-H460 = tested on: NCI-H460
# How it was run: as §1
# PC-14 = tested on: PC-14
# How it was run: as §1
# SW 900 = tested on: SW 900
# How it was run: as §1
# NCI-H441 = tested on: NCI-H441
# How it was run: as §1
# NCI-H322M = tested on: NCI-H322M
# How it was run: as §1
# SK-MES-1 = tested on: SK-MES-1
# How it was run: as §1
# NCI-H661 = tested on: NCI-H661
# How it was run: as §1
# LXF-289 = tested on: LXF-289
# How it was run: as §1
# NCI-H727 = tested on: NCI-H727
# How it was run: as §1
# RERF-LC-KJ = tested on: RERF-LC-KJ
# How it was run: as §1
# NCI-H596 = tested on: NCI-H596
# How it was run: as §1
# NCI-H1755 = tested on: NCI-H1755
# How it was run: as §1
# NCI-H1355 = tested on: NCI-H1355
# How it was run: as §1
# NCI-H2347 = tested on: NCI-H2347
# How it was run: as §1
# NCI-H1915 = tested on: NCI-H1915
# How it was run: as §1
# NCI-H1651 = tested on: NCI-H1651
# How it was run: as §1
# NCI-H2170 = tested on: NCI-H2170
# How it was run: as §1
# NCI-H520 = tested on: NCI-H520
# How it was run: as §1
smiles,measurement,setting,value
C=C1C(=O)O[C@@H](CCCCCCCC)[C@@H]1C(=O)O [C-75] + Cc1cc(Nc2cc(N3CCN(C)CC3)nc(Sc3ccc(NC(=O)C4CC4)cc3)n2)n[nH]1 [Tozasertib] (partner 0.1 µM),relative viability,LCLC-103H; first compound 0.08 µM,0.597
same,relative viability,LCLC-103H; first compound 0.253 µM,0.543
same,relative viability,LCLC-103H; first compound 0.8 µM,0.428
same,relative viability,LCLC-103H; first compound 2.53 µM,0.514
same,relative viability,LCLC-103H; first compound 8 µM,0.406
same,relative viability,NCI-H3122; first compound 0.08 µM,0.414
same,relative viability,NCI-H3122; first compound 0.253 µM,0.514
same,relative viability,NCI-H3122; first compound 0.8 µM,0.403
same,relative viability,NCI-H3122; first compound 8 µM,0.518
same,relative viability,NCI-H650; first compound 0.08 µM,0.759
same,relative viability,NCI-H650; first compound 0.253 µM,0.651
same,relative viability,NCI-H650; first compound 0.8 µM,0.718
same,relative viability,NCI-H650; first compound 2.53 µM,0.616
same,relative viability,NCI-H650; first compound 8 µM,0.62
same,relative viability,NCI-H460; first compound 0.08 µM,0.405
same,relative viability,NCI-H460; first compound 0.253 µM,0.798
same,relative viability,NCI-H460; first compound 0.8 µM,0.391
same,relative viability,NCI-H460; first compound 2.53 µM,0.657
same,relative viability,NCI-H460; first compound 8 µM,0.449
same,relative viability,PC-14; first compound 0.08 µM,0.597
same,relative viability,PC-14; first compound 0.253 µM,0.479
same,relative viability,PC-14; first compound 0.8 µM,0.548
same,relative viability,PC-14; first compound 2.53 µM,0.544
same,relative viability,PC-14; first compound 8 µM,0.578
same,relative viability,SW 900; first compound 0.08 µM,0.595
same,relative viability,SW 900; first compound 0.253 µM,0.919
same,relative viability,SW 900; first compound 0.8 µM,0.571
same,relative viability,SW 900; first compound 2.53 µM,0.704
same,relative viability,SW 900; first compound 8 µM,0.506
same,relative viability,NCI-H441; first compound 0.08 µM,0.624
same,relative viability,NCI-H441; first compound 0.253 µM,0.895
same,relative viability,NCI-H441; first compound 0.8 µM,0.713
same,relative viability,NCI-H441; first compound 2.53 µM,0.543
same,relative viability,NCI-H441; first compound 8 µM,0.729
same,relative viability,NCI-H322M; first compound 0.08 µM,0.46
same,relative viability,NCI-H322M; first compound 0.253 µM,0.453
same,relative viability,NCI-H322M; first compound 0.8 µM,0.458
same,relative viability,NCI-H322M; first compound 2.53 µM,0.302
same,relative viability,NCI-H322M; first compound 8 µM,0.487
same,relative viability,SK-MES-1; first compound 0.08 µM,0.924
same,relative viability,SK-MES-1; first compound 0.253 µM,0.989
same,relative viability,SK-MES-1; first compound 0.8 µM,0.823
same,relative viability,SK-MES-1; first compound 2.53 µM,0.863
same,relative viability,SK-MES-1; first compound 8 µM,0.898
same,relative viability,NCI-H661; first compound 0.08 µM,0.355
same,relative viability,NCI-H661; first compound 0.253 µM,0.347
same,relative viability,NCI-H661; first compound 0.8 µM,0.334
same,relative viability,NCI-H661; first compound 2.53 µM,0.288
same,relative viability,NCI-H661; first compound 8 µM,0.339
same,relative viability,LXF-289; first compound 0.08 µM,0.193
same,relative viability,LXF-289; first compound 0.253 µM,0.18
same,relative viability,LXF-289; first compound 0.8 µM,0.183
same,relative viability,LXF-289; first compound 2.53 µM,0.119
same,relative viability,LXF-289; first compound 8 µM,0.182
same,relative viability,NCI-H727; first compound 0.08 µM,0.623
same,relative viability,NCI-H727; first compound 0.253 µM,0.623
same,relative viability,NCI-H727; first compound 0.8 µM,0.559
same,relative viability,NCI-H727; first compound 8 µM,0.674
same,relative viability,RERF-LC-KJ; first compound 0.08 µM,0.561
same,relative viability,RERF-LC-KJ; first compound 0.253 µM,0.568
same,relative viability,RERF-LC-KJ; first compound 0.8 µM,0.557
same,relative viability,RERF-LC-KJ; first compound 2.53 µM,0.493
same,relative viability,RERF-LC-KJ; first compound 8 µM,0.536
same,relative viability,NCI-H596; first compound 0.08 µM,0.889
same,relative viability,NCI-H596; first compound 0.253 µM,1.09
same,relative viability,NCI-H596; first compound 0.8 µM,0.728
same,relative viability,NCI-H596; first compound 2.53 µM,0.83
same,relative viability,NCI-H596; first compound 8 µM,0.821
same,relative viability,NCI-H1755; first compound 0.08 µM,0.568
same,relative viability,NCI-H1755; first compound 0.253 µM,0.638
same,relative viability,NCI-H1755; first compound 0.8 µM,0.552
same,relative viability,NCI-H1755; first compound 2.53 µM,0.512
same,relative viability,NCI-H1755; first compound 8 µM,0.572
same,relative viability,NCI-H1355; first compound 0.08 µM,0.595
same,relative viability,NCI-H1355; first compound 0.253 µM,0.579
same,relative viability,NCI-H1355; first compound 0.8 µM,0.522
same,relative viability,NCI-H1355; first compound 2.53 µM,0.554
same,relative viability,NCI-H1355; first compound 8 µM,0.517
same,relative viability,NCI-H2347; first compound 0.08 µM,0.558
same,relative viability,NCI-H2347; first compound 0.253 µM,0.74
same,relative viability,NCI-H2347; first compound 0.8 µM,0.517
same,relative viability,NCI-H2347; first compound 8 µM,0.534
same,relative viability,NCI-H1915; first compound 0.08 µM,0.405
same,relative viability,NCI-H1915; first compound 0.253 µM,0.403
same,relative viability,NCI-H1915; first compound 0.8 µM,0.432
same,relative viability,NCI-H1915; first compound 2.53 µM,0.409
same,relative viability,NCI-H1915; first compound 8 µM,0.429
same,relative viability,NCI-H1651; first compound 0.08 µM,0.694
same,relative viability,NCI-H1651; first compound 0.253 µM,0.995
same,relative viability,NCI-H1651; first compound 0.8 µM,0.706
same,relative viability,NCI-H1651; first compound 2.53 µM,0.688
same,relative viability,NCI-H1651; first compound 8 µM,0.682
same,relative viability,NCI-H2170; first compound 0.08 µM,0.682
same,relative viability,NCI-H2170; first compound 0.253 µM,0.826
same,relative viability,NCI-H2170; first compound 0.8 µM,0.796
same,relative viability,NCI-H2170; first compound 2.53 µM,0.291
same,relative viability,NCI-H2170; first compound 8 µM,0.861
same,relative viability,NCI-H520; first compound 0.08 µM,0.428
same,relative viability,NCI-H520; first compound 0.253 µM,0.393
same,relative viability,NCI-H520; first compound 0.8 µM,0.395
same,relative viability,NCI-H520; first compound 2.53 µM,0.295
same,relative viability,NCI-H520; first compound 8 µM,0.46
